Test results published in patent publication US20230293458A1, “MULTIBIOTIC AGENTS AND METHODS OF USING THE SAME” (Flagship Pioneering Innovations V, Inc., priority 2017, published 2023).

Columns and labels:
[1] = Stability of multibiotic agents in Simulated Gastric Fluid (SGF); assay type: in vitro ADME; details: simulated gastric fluid pH 1.6 with pepsin, 37° C., 1 μM
How it was run: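 Compounds were incubated at 1 μM final at 37 °C in simulated gastric fluid containing NaCl, pH 1.6, with FaSSIF powder and 0.1 mg/mL pepsin. Aliquots were taken at T0 and at regular intervals and quenched with acetonitrile. Degradation rates were determined by LC/MS.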

[2] = Stability of multibiotic agents in Simulated Intestinal Fluid (SIF); assay type: in vitro ADME; details: simulated intestinal fluid pH 6.7 with pancreatin, 37° C., 1 μM
How it was run: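 Compounds at 1 μM final (from 1 mM DMSO stock) incubated at 37 °C with agitation in fresh SIF (FaSSIF plus pancreatin in pH 6.7 phosphate buffer). Aliquots taken at T0 and regular intervals, quenched with 1 volume acetonitrile. Degradation rate determined by LC/MS.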

Row | SMILES | Assay 2 (SGF) (% Remaining @ 4 hours) [1] | Assay 3 (SIF) (% @ Remaining 4 hours) [2]
1 | C[C@@H](O)CC(=O)NCCCN(CCCCN(CCCNC(=O)C[C@@H](C)O)C(=O)C[C@@H](C)O)C(=O)C[C@@H](C)O [Example 136, (3R)-3-hydroxy-N-[3-[[(3R)-3-hydroxybutanoyl]-[4-[[(3R)-3-hydroxybutanoyl]-[3-[[(3R)-3-hydroxybutanoyl]amino]propyl]amino]butyl]amino]propyl]butanamide] | C (>75% of the tested compound remaining) | C (>75% of the tested compound remaining)
2 | C[C@@H](O)CC(=O)NCCCNCCCCN(CCCNC(=O)C[C@@H](C)O)C(=O)C[C@@H](C)O [Example 137, (3R)-3-hydroxy-N-[3-[4-[[(3R)-3-hydroxybutanoyl]-[3-[[(3R)-3-hydroxybutanoyl]amino]propyl]amino]butylamino]propyl]butanamide] | C (>75% of the tested compound remaining) | C (>75% of the tested compound remaining)
3 | CC(=O)OC1OC[C@H](OC(C)=O)[C@H](OC(C)=O)[C@H]1OC(C)=O (stereo partly drawn) [Example 138, [(3S,4S,5R)-4,5,6-triacetoxytetrahydropyran-3-yl] acetate] | C (>75% of the tested compound remaining) | C (>75% of the tested compound remaining)
4 | CCCC(=O)OC1OC[C@H](OC(=O)CCC)[C@H](OC(=O)CCC)[C@H]1OC(=O)CCC (stereo partly drawn) [Example 139, [(3S,4S,5R)-4,5,6-tri(butanoyloxy)tetrahydropyran-3-yl] butanoate] | C (>75% of the tested compound remaining) | C (>75% of the tested compound remaining)
5 | CCCC(=O)O[C@H]1[C@@H](OC(=O)CCC)COC(O)[C@@H]1OC(=O)CCC (stereo partly drawn) [Example 140, [(3S,4S,5R)-4,5-di(butanoyloxy)-6-hydroxy-tetrahydropyran-3-yl] butanoate] | C (>75% of the tested compound remaining) | C (>75% of the tested compound remaining)
6 | CCCC(=O)O[C@H]1[C@@H](OC(=O)CCC)COC(Oc2ccccc2C(=O)O)[C@@H]1OC(=O)CCC (stereo partly drawn) [Example 141, 2-[(3R,4S,5S)-3,4,5-tri(butanoyloxy)tetrahydropyran-2-yl]oxybenzoic acid] | C (>75% of the tested compound remaining) | A (<25% of the tested compound remaining)
7 | Cc1ncc(CO)c(COC(=O)/C=C/c2c[nH]c3ccccc23)c1OC(=O)/C=C/c1c[nH]c2ccccc12 [Example 142, [5-(hydroxymethyl)-3-[(E)-3-(1H-indol-3-yl)prop-2-enoyl]oxy-2-methyl-4-pyridyl]methyl (E)-3-(1H-indol-3-yl)prop-2-enoate] | C (>75% of the tested compound remaining) | C (>75% of the tested compound remaining)
8 | C[C@@H](O)CC(=O)NCCCNCCCNC(=O)C[C@@H](C)O [Example 143, (3R)-3-hydroxy-N-[3-[3-[[(3R)-3-hydroxybutanoyl]amino]propylamino]propyl] butanamide] | C (>75% of the tested compound remaining) | C (>75% of the tested compound remaining)
9 | CCCC(=O)O[C@@H]1[C@H](OC(=O)CCC)COC(O)[C@@H]1OC(=O)CCC (stereo partly drawn) [Example 144, [(3R,4R,5R)-4,5-di(butanoyloxy)-6-hydroxy-tetrahydropyran-3-yl] butanoate] | C (>75% of the tested compound remaining) | A (<25% of the tested compound remaining)
10 | O=C(Cc1c[nH]c2ccccc12)O[C@H]1OC[C@@H](OC(=O)Cc2c[nH]c3ccccc23)[C@@H](OC(=O)Cc2c[nH]c3ccccc23)[C@H]1OC(=O)Cc1c[nH]c2ccccc12 [Example 145, [(3R,4R,5R,6R)-4,5,6-tris[[2-(1H-indol-3-yl)acetyl]oxy]tetrahydropyran-3-yl] 2-(1H-indol-3-yl)acetate] | C (>75% of the tested compound remaining) | A (<25% of the tested compound remaining)
11 | O=C(Cc1c[nH]c2ccccc12)O[C@@H]1OC[C@@H](OC(=O)Cc2c[nH]c3ccccc23)[C@@H](OC(=O)Cc2c[nH]c3ccccc23)[C@H]1OC(=O)Cc1c[nH]c2ccccc12 [Example 146, [(3R,4R,5R,6S)-4,5,6-tris[[2-(1H-indol-3-yl)acetyl]oxy]tetrahydropyran-3-yl] 2-(1H-indol-3-yl)acetate] | C (>75% of the tested compound remaining) | A (<25% of the tested compound remaining)
12 | O=C(Cc1c[nH]c2ccccc12)O[C@H]1[C@@H](OC(=O)Cc2c[nH]c3ccccc23)COC(O)[C@@H]1OC(=O)Cc1c[nH]c2ccccc12 (stereo partly drawn) [Example 147, [(3S,4S,5R)-6-hydroxy-4,5-bis[[2-(1H-indol-3-yl)acetyl]oxy]tetrahydropyran-3-yl] 2-(1H-indol-3-yl)acetate] | C (>75% of the tested compound remaining) | B (25-75% of the tested compound remaining)
13 | O=C(CCc1c[nH]c2ccccc12)O[C@H]1[C@@H](OC(=O)CCc2c[nH]c3ccccc23)COC(O)[C@@H]1OC(=O)CCc1c[nH]c2ccccc12 (stereo partly drawn) [Example 148, [(3S,4S,5R)-6-hydroxy-4,5-bis[3-(1H-indol-3-yl)propanoyloxy]tetrahydropyran-3-yl] 3-(1H-indol-3-yl)propanoate] | C (>75% of the tested compound remaining) | A (<25% of the tested compound remaining)
14 | CCC(=O)OC1OC[C@H](OC(=O)CC)[C@H](OC(=O)CC)[C@H]1OC(=O)CC (stereo partly drawn) [Example 149, [(3S,4S,5R)-4,5,6-tri(propanoyloxy)tetrahydropyran-3-yl] propanoate] | C (>75% of the tested compound remaining) | C (>75% of the tested compound remaining)
15 | CCCC(=O)OC1O[C@@H](C)[C@H](OC(=O)CCC)[C@@H](OC(=O)CCC)[C@H]1OC(=O)CCC (stereo partly drawn) [Example 152, [(2S,3S,4R,5R)-4,5,6-tri(butanoyloxy)-2-methyl-tetrahydropyran-3-yl] butanoate] | C (>75% of the tested compound remaining) | C (>75% of the tested compound remaining)
16 | C[C@@H]1OC(O)[C@H](OC(=O)Cc2c[nH]c3ccccc23)[C@H](OC(=O)Cc2c[nH]c3ccccc23)[C@H]1OC(=O)Cc1c[nH]c2ccccc12 (stereo partly drawn) [Example 155, [(2S,3S,4R,5R)-6-hydroxy-4,5-bis[[2-(1H-indol-3-yl)acetyl]oxy]-2-methyl-tetrahydropyran-3-yl] 2-(1H-indol-3-yl)acetate] | C (>75% of the tested compound remaining) | C (>75% of the tested compound remaining)
17 | CCCC(=O)O[C@@H]1[C@H](OC(=O)CCC)[C@H](C)OC(O)[C@H]1OC(=O)CCC (stereo partly drawn) [Example 156, [(2S,3R,4R,5S)-4,5-di(butanoyloxy)-6-hydroxy-2-methyl-tetrahydropyran-3-yl] butanoate] | C (>75% of the tested compound remaining) | A (<25% of the tested compound remaining)
18 | CCC(=O)OC1O[C@@H](C)[C@@H](OC(=O)CC)[C@@H](OC(=O)CC)[C@@H]1OC(=O)CC (stereo partly drawn) [Example 157, [(2S,3R,4R,5S)-2-methyl-4,5,6-tri(propanoyloxy)tetrahydropyran-3-yl] propanoate] | C (>75% of the tested compound remaining) | A (<25% of the tested compound remaining)
19 | CCCC(=O)OC[C@H]1OC(OC(=O)CCC)[C@H](OC(=O)CCC)[C@@H](OC(=O)CCC)[C@@H]1OC(=O)CCC (stereo partly drawn) [Example 160, [(2R,3R,4S,5R)-3,4,5,6-tetra(butanoyloxy)tetrahydropyran-2-yl]methyl butanoate] | C (>75% of the tested compound remaining) | A (<25% of the tested compound remaining)
20 | CCCC(=O)OC[C@H]1OC(O)[C@H](OC(=O)CCC)[C@@H](OC(=O)CCC)[C@@H]1OC(=O)CCC (stereo partly drawn) [Example 161, [(2R,3R,4S,5R)-3,4,5-tri(butanoyloxy)-6-hydroxy-tetrahydropyran-2-yl]methyl butanoate] | C (>75% of the tested compound remaining) | A (<25% of the tested compound remaining)
21 | CC(=O)OCC1(OC(C)=O)OC[C@@H](OC(C)=O)[C@H](OC(C)=O)[C@@H]1OC(C)=O (stereo partly drawn) [Example 162, [(3S,4S,5R)-2,3,4,5-tetraacetoxytetrahydropyran-2-yl]methyl acetate] | C (>75% of the tested compound remaining) | B (25-75% of the tested compound remaining)
22 | CCCC(=O)OCC1(OC(=O)CCC)OC[C@@H](OC(=O)CCC)[C@H](OC(=O)CCC)[C@@H]1OC(=O)CCC (stereo partly drawn) [Example 163, [(3S,4S,5R)-2,3,4,5-tetra(butanoyloxy)tetrahydropyran-2-yl]methyl butanoate] | B (25-75% of the tested compound remaining) | A (<25% of the tested compound remaining)
